We go through 80 compounds from the METLIN SMRT retention time set (Domingo-Almenara et al. 2019).

The data set can be described thus: gradient 5% acetonitrile 3 min, to 50% in 2 min, to 85% in 15 min, held 3 min, 100 µL/min. The conditions noted are these: column: Zorbax Extend-C18 2.1 x 50 mm; eluents: water / acetonitrile, 0.1% formic acid. The gist of the method:
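Retention times of pure standards were taken from adduct peaks that were selected by computer and manually inspected. Over 3 months, mixtures of ~100 molecules were run by HPLC–quadrupole time-of-flight mass spectrometry in positive and negative ionization mode. The Zorbax Extend-C18 column (2.1 × 50 mm, 1.8 μm) ran at 100 μL/min in water and acetonitrile, each containing 0.1% formic acid, with 40 μL dead volume and 900 μL dwell volume.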
`CCN(CC)C(=O)c1cnc2snc(C)c2c1N1CCC(C(=O)Nc2ccc(C(C)C)cc2)CC1`: the RP-LC retention time was 1040 s.

In turn, `CCOC(=O)C1=C(C)N(CC(=O)NC(C)CC)c2ncnn2C1c1ccc(C)cc1` (stereo not given) returned an RP-LC retention time of 910 s.

`COC(=O)c1ccc(CSc2nnc(CNC(=O)c3ccccc3)o2)o1` displayed an RP-LC retention time of 683 s.

Turning to `COc1ccc(C(O)CN2CCN(c3ccc(OC)cc3)CC2)cc1` (stereo not given), the RP-LC retention time was 647 s.

Compound `CC(C)n1c(C2CCN(C(=O)Cc3cccc(Cl)c3)C2)nc2ccncc21` (stereo not given) registered an RP-LC retention time of 567 s.

On to `CCCC(=O)Nc1nc(-c2ccc3c(c2)N(CCC)C(=O)CO3)cs1`, for which the RP-LC retention time was 935 s.

In the case of `Cc1ccc(-c2cc3c(=O)n(Cc4noc(CN5CCCCCC5)n4)ccn3n2)c(C)c1`, the RP-LC retention time came out at 724 s.

Regarding `CCSc1nnc(-c2nn(C)c3c2CN(C(=O)c2ccc(C)cc2)CC3)n1C`, the RP-LC retention time came out at 770 s.

As to `COc1ccc(CCNC(=O)c2ccc3c(c2)N(C)C(=O)C2CCCCN32)cc1OC` (stereo not given), the RP-LC retention time worked out at 774 s.

For the compound `O=C(NCCS(=O)(=O)N1CCN(c2ncccn2)CC1)Nc1cccs1`, the RP-LC retention time stood at 664 s.

In the case of `COc1ccc(CC2C(=O)Nc3ccc(Cl)cc32)cc1` (stereo not given), the RP-LC retention time is 888 s.

`Cc1ccc(S(=O)(=O)N2CC(=O)N(C3CCCCC3)C(C)(C(=O)NCc3ccccc3)C2)cc1` (stereo not given) came in with an RP-LC retention time of 1100 s.

For the compound `COc1ccccc1-c1nnc(SCC(=O)N2CCc3ccccc32)o1`, the RP-LC retention time was determined as 839 s.

The compound `COc1ccc(C)cc1NC(=O)CN1C(=O)C2CCCCN2c2ccc(S(=O)(=O)N(C)C)cc21` (stereo not given) showed an RP-LC retention time of 1000 s.

Take `CNC(=O)c1sc(-c2ccccc2F)nc1C`: the RP-LC retention time worked out at 772 s.

`COc1cccc(Cn2nc3ccc(S(=O)(=O)N4CCCC4)cn3c2=O)c1` yielded an RP-LC retention time of 814 s.

For the compound `O=C1Nc2ccccc2C12OCC1(CO2)COC2(OC1)C(=O)Nc1ccccc12` (stereo not given), the RP-LC retention time is 784 s.

In the case of `O=C(CCC(=O)N1CCN(c2ccc(=O)n(-c3ccccc3)n2)CC1)N1CCOCC1`, the RP-LC retention time was found to be 612 s.

Compound `Cc1ccc(C)c(-c2coc(-c3ccc(NC(=O)Cc4cccs4)cc3)n2)c1` returned an RP-LC retention time of 1230 s.

With `COc1ccc(-c2ccc3nc(N4CCC(C(=O)N5CCOCC5)CC4)sc3n2)cc1`, the RP-LC retention time was found to be 822 s.

Turning to `Cc1noc(C)c1CCNC(=O)CCCn1c(=O)c2cccn2c2ccc(Br)cc21`, the RP-LC retention time was 803 s.

For the compound `c1ccc2c(c1)CCN(c1ncnc3c1CCC3)C2`, the RP-LC retention time was found to be 650 s.

In the case of `COC(=O)c1[nH]c2c(c1C)C(=O)CC(c1cccc(OC)c1)C2` (stereo not given), the RP-LC retention time came to 838 s.

`Cc1ccccc1CNC(=O)Cn1cccc1-c1nnc(C2CCC2)o1` registered an RP-LC retention time of 920 s.

Consider `CCC(C)NC(=O)c1sc(-c2cn(C(C)C)c3ncccc23)nc1C` (stereo not given), for which the RP-LC retention time turned out to be 931 s.

With `CCC(=O)c1cn(CC(=O)NCc2ccc3c(c2)OCCCO3)c2ccccc12`, the RP-LC retention time came to 794 s.

The compound `COc1ccc(OC)c(NC(=O)Cn2c(=O)n(-c3ccccc3)c3ncccc32)c1` gave an RP-LC retention time of 841 s.

In turn, `COc1cccc(-c2nnc(SCC(=O)NCc3cccnc3)n2-c2ccccc2)c1` had an RP-LC retention time of 573 s.

Take `CCOc1ccc(S(=O)(=O)N2CCC(C(=O)N3CCc4ccccc4C3)CC2)cc1`: the RP-LC retention time came out at 985 s.

In turn, `Cc1ccc(CNC(=O)C2(C)Oc3cccnc3N(C(C)C)C2=O)cc1` (stereo not given) yielded an RP-LC retention time of 982 s.

The compound `CC(=O)N1CCN(c2nc(C)cc(N3CCCCC3)n2)CC1` displayed an RP-LC retention time of 598 s.

`Cn1ccc(C(=O)N2CCCC2c2ccc(Cl)cc2)n1` (stereo not given) yielded an RP-LC retention time of 824 s.

The compound `CC(=O)c1ccc(NC(=O)COc2cc(C)nc(N3CCCCCC3)n2)cc1` yielded an RP-LC retention time of 642 s.

The compound `CC1CCCN(c2ccc(-c3noc(CN4CCC(C(N)=O)CC4)n3)cn2)C1` (stereo not given) displayed an RP-LC retention time of 589 s.

`COc1ccc(CCC(=O)N2CCCC2c2c(C)noc2C)cc1` (stereo not given) registered an RP-LC retention time of 868 s.

In the case of `CSc1cccc(NC(=O)N2CC(c3nc(C)no3)C3(CCOCC3)C2)c1` (stereo not given), the RP-LC retention time turned out to be 760 s.

Consider `CCCN(C)C[C@@H]1CC(F)(F)CN1C1CCN(S(=O)(=O)c2ccc(C)cc2C)CC1`, for which the RP-LC retention time was 788 s.

Turning to `COCCNc1nc(-c2ccc([N+](=O)[O-])cc2)nc2ccccc12`, the RP-LC retention time was 696 s.

As to `CS(=O)(=O)Nc1cccc(NC(=O)c2cc(-c3cccs3)[nH]n2)c1`, the RP-LC retention time turned out to be 699 s.

As to `CC1=CN2C(c3cccc([N+](=O)[O-])c3)=NON(c3ccc(C)cn3)C2C=C1` (stereo not given), the RP-LC retention time stood at 1190 s.

In turn, `Cc1cccc(NC(=O)Cn2nc(N(C)C)c3ccccc3c2=O)c1C` came in with an RP-LC retention time of 849 s.

Compound `CCOc1ccccc1NC(=O)CSc1ncnc2c1nnn2-c1ccc(OC)cc1` showed an RP-LC retention time of 1030 s.

`Cc1noc(C)c1CNC(=O)c1cc(Cl)ccc1F` registered an RP-LC retention time of 778 s.

Regarding `Cc1ccc(Nc2c(-c3ccc(N4CCOCC4)cc3)nc3cnccn23)cc1`, the RP-LC retention time worked out at 848 s.

As for `COc1ccc(-c2nnc(-c3cc(S(=O)(=O)N(C)C)ccc3Cl)o2)cc1`, the RP-LC retention time is 970 s.

In the case of `Cc1nc(-c2ccc(N3CCN(C(=O)c4cccc(Cl)c4)CC3)nc2)sc1C`, the RP-LC retention time is 957 s.

In the case of `CC(=O)c1ccc(OCC(O)CN2CCN(Cc3ccc(Cl)cc3)CC2)cc1` (stereo not given), the RP-LC retention time turned out to be 574 s.

The compound `Cc1ccc2nc(CNC(=O)Cn3nc(C(=O)N4CCCC4)c4ccccc43)[nH]c2c1` gave an RP-LC retention time of 600 s.

In turn, `CN1C(=O)C(=C2CCCC2)c2cc(S(=O)(=O)N3CCN(c4ccccn4)CC3)ccc21` registered an RP-LC retention time of 710 s.

`CCN(CCN(C)C)c1ccc(NS(=O)(=O)c2ccccc2)cc1C(=O)O`: the RP-LC retention time was 582 s.

Take `O=C(CNC(=O)c1ccc(F)cc1)Nc1nc2ccccc2[nH]1`: the RP-LC retention time is 608 s.

As for `O=C(NCCc1ccc(Cl)cc1)c1nc(Cn2c(=O)oc3ccccc32)no1`, the RP-LC retention time was 969 s.

With `Cn1ncc(NC(=O)Cc2cccc(F)c2)c(N2CCOCC2)c1=O`, the RP-LC retention time came to 722 s.

For `CCN(CC)CCNC(=O)c1cc2n(n1)CCCN(Cc1cccc(C)c1)C2=O`, the RP-LC retention time was determined as 630 s.

Turning to `COc1ccc2[nH]cc(CCNC(=O)C34CCC=C3N(C3CCCC3)C(=O)CC4)c2c1` (stereo not given), the RP-LC retention time was 798 s.

As for `CS(=O)(=O)N1CCn2nc(-c3cccs3)cc21`, the RP-LC retention time came out at 681 s.

Compound `N#Cc1cccc(S(=O)(=O)N2CCc3nc(-c4ccc(Cl)cc4)ncc3C2)c1` displayed an RP-LC retention time of 1130 s.

On to `CC1(C)Cc2cccc(OCc3ccc(C(=O)NCc4ccccn4)cc3)c2O1`, for which the RP-LC retention time came out at 663 s.

In turn, `CC(C)C(=O)Nc1cccn2nc(C(C)C)nc12` yielded an RP-LC retention time of 780 s.

In turn, `CCc1c(C)nc2nc(-c3ccccc3)nn2c1NCc1ccc(C)cc1` registered an RP-LC retention time of 996 s.

Compound `O=C(c1ccc(-c2ccnc(N3CCCCC3)n2)cc1)N1CCC2(CC1)OCCO2` gave an RP-LC retention time of 882 s.

Compound `COc1ccc(NC(=O)Nc2cccc(-c3nccnc3N3CCCC3)c2)c(OC)c1` returned an RP-LC retention time of 881 s.

As for `CCOC(=O)c1c(C)[nH]c(C)c1S(=O)(=O)N1CCC(C(=O)NCc2ccccc2)CC1`, the RP-LC retention time turned out to be 754 s.

The compound `Cc1ccc2[nH]cc(CCN3CC(C(=O)NCc4ccc5c(c4)OCO5)CC3=O)c2c1` (stereo not given) registered an RP-LC retention time of 770 s.

With `Cc1ccccc1-c1cc(C(=O)N2CCC(NC(=O)C3CCC(C)CC3)CC2)[nH]n1` (stereo not given), the RP-LC retention time is 811 s.

`CCOC(=O)C1=C(C)NC2=C(C(=O)C(C(=O)OC)C(C)C2)C1c1ccccc1OCC` (stereo not given) showed an RP-LC retention time of 906 s.

The compound `Cc1nc(-c2cc(S(=O)(=O)N3CCC(C(=O)N4CCCCCC4)CC3)c(C)s2)no1` came in with an RP-LC retention time of 919 s.

`CN(C(=O)Cc1ccsc1)C1CCc2nn(C)c(=O)n2CC1` (stereo not given) displayed an RP-LC retention time of 600 s.

Consider `Cc1ccccc1NC(=O)Cn1ncc2c(c1=O)N(CC1CC1)C(=O)CS2`, for which the RP-LC retention time came out at 797 s.

On to `O=C(Nc1nnc(SCc2cccc(Cl)c2)s1)c1ccccc1C(F)(F)F`, for which the RP-LC retention time is 1010 s.

In the case of `Fc1cccc(-c2noc(-c3nnn4c3COC(c3ccc(Cl)cc3)C4)n2)c1` (stereo not given), the RP-LC retention time was determined as 1170 s.

`O=C(NCCC1=CCCCC1)C(=O)NCC1OCCCN1S(=O)(=O)c1ccccc1` (stereo not given) had an RP-LC retention time of 911 s.

Turning to `Cc1ccc(C)c(NC(=O)N2CCc3nc[nH]c3C2)c1`, the RP-LC retention time came out at 580 s.

With `CC(C)c1noc(-c2ccnc(-n3cnc(C(=O)N4CCCC4)c3)c2)n1`, the RP-LC retention time amounted to 616 s.

Compound `Cc1cc(C)cc(Oc2nccn3c(=O)n(CC(=O)NCc4ccco4)nc23)c1` gave an RP-LC retention time of 1210 s.

Regarding `Cc1ccc(CN2CC(=O)N3CCc4c([nH]c5ccccc45)C3(C)C2=O)cc1` (stereo not given), the RP-LC retention time stood at 1020 s.

On to `COC(=O)c1ccccc1NC(=O)N1CCN(c2ccc(=O)n(-c3ccccc3)n2)CC1`, for which the RP-LC retention time came to 876 s.

`O=C(NCCCN1CCc2ccccc2C1)c1ccnc(-c2cccs2)c1` yielded an RP-LC retention time of 646 s.

Compound `COC(=O)c1ccc2c(=O)n(-c3ccc(OC)c(OC)c3)c(N3CCOCC3)nc2c1` displayed an RP-LC retention time of 800 s.

The compound `CCC1=C(c2ccc(C)cc2)S(=O)(=O)N=C1N1CCC(C(=O)N2CCN(C)CC2)CC1` returned an RP-LC retention time of 641 s.
